Measured values as given in BindingDB's records for doi:10.1080/14756360310001612211 (Kobe Gakuin University, 2003).
Where “and” joins values, the source holds several entries; their conditions need not be identical. Equal entries are not always repeated.

Target: Proto-oncogene tyrosine-protein kinase Src (Gallus gallus, UniProt P00523)
Test: Tyrosine Kinase Assay
Conditions: 37 °C
From the text: Takara Universal Tyrosine Assay Kit (Takara-bio co) was used to test the synthesized compounds. This assay kit determines the inhibition activities of inhibitors against a substrate of tyrosine kinase.

Compound	IC50
O=C(OCCN(N1CCCCC1)N1CCCCC1)c1cc2ccccc2n1-c1ccccc1 [Indole ester derivative, 16]	306 µM and > 1000 µM and 279 µM
O=C(OCCN(n1cccc1)n1cccc1)c1cc2ccccc2[nH]1 [Indole ester derivative, 24]	21.4 µM
O=C(OCCN(n1cccc1)n1cccc1)c1cc2ccccc2n1-c1ccccc1 [Indole ester derivative, 19]	258 µM and > 1000 µM
CC(CN(C)C)OC(=O)c1cc2ccccc2[nH]1 (stereo not drawn) [Indole ester derivative, 26]	> 500 µM
CC(CN(C)C)OC(=O)c1cc2ccccc2n1-c1ccccc1 (stereo not drawn) [Indole ester derivative, 21]	> 1000 µM
CC(CN(C)C)OC(=O)c1cc2ccccc2n1Cc1ccccc1 (stereo not drawn) [Indole ester derivative, 10]	> 1000 µM
CCN(CC)CCOC(=O)c1cc2ccccc2n1Cc1ccccc1 [Indole ester derivative, 7]	> 1000 µM and 614 µM
CN(C)CCOC(=O)c1cc2ccccc2n1-c1ccccc1 [Indole ester derivative, 17]	> 1000 µM
CN(C)CCOC(=O)c1cc2ccccc2n1Cc1ccccc1 [Indole ester derivative, 6]	> 500 µM and 631 µM
O=C(OCCN(N1CCCCC1)N1CCCCC1)c1cc2ccccc2[nH]1 [Indole ester derivative, 27]	830 µM and > 500 µM
CCN(CC)CCOC(=O)c1cc2ccccc2[nH]1 [Indole ester derivative, 23]	> 1000 µM
O=C(OCCN(n1cccc1)n1cccc1)c1cc2ccccc2n1Cc1ccccc1 [Indole ester derivative, 8]	> 1000 µM and 215 µM
CCN(CC)CCOC(=O)c1cc2ccccc2n1-c1ccccc1 [Indole ester derivative, 18]	> 1000 µM and 817 µM
